Legend:
[1] = biological target: T1, Retinol-binding protein 4 (Homo sapiens, UniProt P02753); assay: Displacement of [3H]-retinol from RBP4 (unknown origin) by scintillation proximity assay
[2] = biological target: T1, Retinol-binding protein 4; assay: Inhibition of retinol-induced interaction of bacterially expressed MBP-tagged RBP4 (unknown origin) with Eu3+ cryptate labeled TTR by HTRF assay

Row | IC50 [1] | IC50 [2] | SMILES
1 | 0.0208 µM |  | O=C(O)c1ccnc(N2C[C@H]3C[C@@H](c4ccccc4C(F)(F)F)C[C@H]3C2)n1
2 | 0.0128 µM | 0.0812 µM | COc1cc(C(=O)O)nc(N2C[C@H]3C[C@@H](c4ccccc4C(F)(F)F)C[C@H]3C2)n1
3 | 0.153 µM |  | CC(C)c1cc(C(=O)O)nc(N2C[C@H]3C[C@@H](c4ccccc4C(F)(F)F)C[C@H]3C2)n1
4 | 0.0408 µM | 0.523 µM | Cc1nc(N2C[C@H]3C[C@@H](c4ccccc4C(F)(F)F)C[C@H]3C2)ncc1C(=O)O

— ChEMBL document CHEMBL3593175, “Bicyclic [3.3.0]-Octahydrocyclopenta[c]pyrrolo Antagonists of Retinol Binding Protein 4: Potential Treatment of Atrophic Age-Related Macular Degeneration and Stargardt Disease” (J Med Chem, 2015)
